Values quoted from earlier work in patent publication EP2505189B1, “Stabilizing alkylglycoside compositions and method thereof” (Aegis Therapeutics, LLC, priority 2006, dated 2007).
Values belong to the compound of their own block, whether it stands above or below them.

Experiments:
isolated nasal cilia = conditions: in vitro, cilia from 15 human donors
[1] = in water
[2] = Phase I, 1987-1990
[3] = system: HIV-related peripheral neuropathy; conditions: in vivo

- CMC [1]: 0.3 mM
Compound: Sucrose dodecanoate

- CMC [1]: 0.03 mM
Compound: CCCCCCCCCCCCCO[C@@H]1O[C@H](CO)[C@@H](OC2OC(CO)C(O)C(O)C2O)[C@H](O)[C@H]1O (stereo in doubt) [Tridecyl maltoside]

- CMC [1]: 0.01 mM
Compound: CCCCCCCCCCCCCCO[C@@H]1O[C@H](CO)[C@@H](O[C@@H]2O[C@@H](CO)[C@H](O)[C@@H](O)[C@@H]2O)[C@H](O)[C@H]1O (stereo in doubt) [Tetradecyl maltoside]

More lines, now with the values behind:

Compound: benzalkonium chloride [BAC]
- nasal irritation (nasal mucosa; 0.02% (Lange 2004)): no discernible negative effects whatsoever
- effect on the nasal mucosal function (nasal mucosa; 0.02% twice a day, two weeks of continual regular use (McMahon 1997)): no detectable effect on the nasal mucosal function
- saccharine transport time (nasal mucosa; in vivo tests (Riechelmann 2004)): did not alter saccharine transport time
- damage to the nasal mucosa (nasal mucosa; prolonged use of topical formulations, 14 in vivo studies (Marple 2004)): no significant damage to the nasal mucosa
- effect on isolated nasal cilia (isolated nasal cilia): ciliotoxic

Compound: CCCCCCCCCCCCO[C@@H]1O[C@H](CO)[C@@H](O[C@H]2O[C@H](CO)[C@@H](O)[C@H](O)[C@H]2O)[C@H](O)[C@H]1O [Dodecyl β -D-maltoside]
- CMC [1]: 0.17 mM

Compound: CCCCCCCCCCO[C@@H]1O[C@H](CO)[C@@H](O[C@H]2O[C@H](CO)[C@@H](O)[C@H](O)[C@H]2O)[C@H](O)[C@H]1O [Decyl maltoside]
- CMC [1]: 1.8 mM

Compound: C[C@@H](N)C(=O)N[C@@H](CO)C(=O)N[C@H](C(=O)N[C@H](C(=O)N[C@H](C(=O)N[C@@H](CC(N)=O)C(=O)N[C@@H](Cc1ccc(O)cc1)C(=O)N[C@H](C(N)=O)[C@@H](C)O)[C@@H](C)O)[C@@H](C)O)[C@@H](C)O [DAPTA, D-ala^1-Peptide T-amide]
- toxicity [2]: complete lack of toxicity
- adverse drug effects [3]: No adverse drug effects were noted

Compound: CCCCCCCCO[C@@H]1O[C@H](CO)[C@@H](O[C@H]2O[C@H](CO)[C@@H](O)[C@H](O)[C@H]2O)[C@H](O)[C@H]1O [Octyl maltoside]
- CMC [1]: 19.5 mM
